# Assay results from ChEMBL document CHEMBL1135441, “Elevation of ligand binding to muscarinic M(2) acetylcholine receptors by bis(ammonio)alkane-type allosteric modulators” (J Med Chem, 2002).
# Target: Muscarinic acetylcholine receptor M2 (Sus scrofa) (UniProt P06199)
# Test: Binding of [3H]N-methylscopolamine at porcine heart Muscarinic acetylcholine receptor M2 and negative log of the equilibrium dissociation constant was reported
# Muscarinic acetylcholine receptor M2 (Sus scrofa), sequence (P06199 whole entry, looked up): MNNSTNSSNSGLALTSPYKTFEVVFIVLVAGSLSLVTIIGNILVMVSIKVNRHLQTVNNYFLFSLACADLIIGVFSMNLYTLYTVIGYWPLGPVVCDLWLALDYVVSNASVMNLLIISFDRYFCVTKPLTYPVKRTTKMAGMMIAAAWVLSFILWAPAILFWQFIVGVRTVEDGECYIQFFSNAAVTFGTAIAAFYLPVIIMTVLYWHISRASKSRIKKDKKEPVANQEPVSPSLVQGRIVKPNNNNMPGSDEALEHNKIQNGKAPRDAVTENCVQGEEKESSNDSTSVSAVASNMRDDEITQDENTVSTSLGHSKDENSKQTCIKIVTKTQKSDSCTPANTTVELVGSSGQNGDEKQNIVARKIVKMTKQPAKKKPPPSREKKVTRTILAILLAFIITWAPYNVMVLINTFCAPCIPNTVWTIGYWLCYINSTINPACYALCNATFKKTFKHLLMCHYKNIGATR
row,pKA,SMILES
1,7.08,Cc1ccc2c(c1)C(=O)N(CCC[N+](C)(C)CCCCCC[N+](C)(C)CCCN1C(=O)c3ccc(C)cc3C1=O)C2=O
2,7.26,Cc1ccc2c(c1)C(=O)N(CC(C)(C)C[N+](C)(C)CCCCCC[N+](C)(C)CCCN1C(=O)c3ccccc3C1=O)C2=O
3,6.53,C[N+](C)(CCCCCC[N+](C)(C)CCCN1C(=O)c2ccccc2C1=O)CCCN1C(=O)c2ccccc2C1=O
4,6.89,Cc1ccc2c(c1)C(=O)N(CCC[N+](C)(C)CCCCCC[N+](C)(C)CCCN1C(=O)c3ccccc3C1=O)C2=O
5,6.9,CC(C)(CN1C(=O)c2ccccc2C1=O)C[N+](C)(C)CCCCCC[N+](C)(C)CCCN1C(=O)c2ccccc2C1=O
6,7.2,Cc1ccc2c(c1)C(=O)N(CCC[N+](C)(C)CCCCCC[N+](C)(C)CC(C)(C)CN1C(=O)c3ccccc3C1=O)C2=O
7,7.41,Cc1ccc2c(c1)C(=O)N(CCC[N+](C)(C)CCCCCC[N+](C)(C)CC(C)(C)CN1C(=O)c3ccc(C)cc3C1=O)C2=O
8,7.21,Cc1ccc2c(c1)C(=O)N(CC(C)(C)C[N+](C)(C)CCCCCC[N+](C)(C)CC(C)(C)CN1C(=O)c3ccc(C)cc3C1=O)C2=O
9,7.08,CC(C)(CN1C(=O)c2ccccc2C1=O)C[N+](C)(C)CCCCCC[N+](C)(C)CC(C)(C)CN1C(=O)c2ccccc2C1=O
